According to patent publication US10307427B2, “Apoptosis signal-regulating kinase inhibitors” (Gilead Sciences, Inc., priority 2012, dated 2019):

Test system: CXCL1 in human whole blood
Assay: Human whole blood CXCL1 assay (Auranofin stimulation)
Type: cell-based
Settings: 5 μM Auranofin, 24 hours, CXCL1 quantified, average of donors, read-out: WB EC50 nM (n = 4)
Procedure: Human Whole Blood CXCL1 Assay
Human blood collected in sodium heparin glass vacutainer tubes (BD Biosciences #366480) was obtained from Stanford Blood Center (Palo Alto, Ca). Red blood cell Ammonium-Chloride-Potassium (ACK) lysis buffer was obtained from Invitrogen (A10492-01) Phosphate buffered saline (PBS, 21-031-CV) and RPMI640 media (10-040-CV) were purchased from Cellgro. 50 ml conical tubes were from BD Biosciences (352070). Multiscreen Filter plates (MSBVS 1210) used along with vacuum manifold for 96-well plate (MAVM0960R) were purchased from EMD Millipore Inc. Transfer pipettes (13-711-20) and hemocytometer (0267110) were purchased from Thermo Fisher Scientific. An Allegra X15R from Beckmann Coulter was used for all the centrifugation steps in the isolation of PBMCs.
ASK1 inhibitors and Auranofin (Enzo Life Sciences Inc. BML-EI206-0100) were dissolved in dimethyl sulfoxide (DMSO, Sigma Aldrich cat#472301) at a concentration of 10 mM and 100 mM, respectively. […] CXCL1 protein was quantified with an ELISA assay from Millipore.
A 10 mM ASK1 inhibitor DMSO stock was diluted in saline to create a 100 μM (10×) working solution. […] 50 μl of the resulting supernatant from each well was transferred to a new 96 well assay plate and the amount of CXCL1 was quantified by a Procarta immunoassay following the manufacturer's instructions. […]

Compound	EC50
O=C(Nc1csc(-c2nncn2C2CC2)n1)c1cc(-n2cnc(C3CC3)c2)c(N2CCOCC2)cn1 [Example 1, 4-(4-cyclopropyl-1H-imidazol-1-yl)-N-(2-(4-cyclopropyl-4H-1,2,4-triazol-3-yl)thiazol-4-yl)-5-morpholinopicolinamide]	243 nM
C[C@H](n1cnnc1-c1nc(NC(=O)c2cc(-n3cnc(C4CC4)c3)c(N3CCOCC3)cn2)cs1)C(F)(F)F [Example 3, (S)-4-(4-cyclopropyl-1H-imidazol-1-yl)-5-morpholino-N-(2-(4-(1,1,1-trifluoropropan-2-yl)-4H-1,2,4-triazol-3-yl)thiazol-4-yl)picolinamide]	202 nM
